Numbers after ± are expanded uncertainties.

A short description of the data set: activity coefficient (dimensionless); of the first substance listed, at infinite dilution; xn = mol fraction of the nth substance listed. To be noted: 101 kPa, Liquid, Chromatography, x1 = 0.

For `CCc1ccccc1` [ethylbenzene] + CCCCCCCCCCCC(=O)O, the activity coefficient runs as follows: (314.24 K) 1.22 ± 0.1; (333.26 K) 1.2 ± 0.1; (333.38 K) 1.19 ± 0.099; (353.25 K) 1.18 ± 0.098; (353.3 K) 1.18 ± 0.097.
For `CC(C)=O` [acetone] + CCCCCCCCCCCC(=O)O, the activity coefficient was found to be 1.59 ± 0.14 (314.1 K); 1.59 ± 0.14 (314.24 K); 1.45 ± 0.12 (333.26 K); 1.47 ± 0.12 (333.38 K); 1.33 ± 0.11 (353.25 K); 1.36 ± 0.12 (353.3 K).
On to `C=CCCCC` [hex-1-ene] + CCCCCCCCCC(=O)O, for which the activity coefficient was determined as 1.56 ± 0.13 (314.24 K), 1.5 ± 0.13 (333.26 K), 1.49 ± 0.13 (333.38 K) and 1.43 ± 0.12 (353.3 K).
For the compound `CC(C)O` [propan-2-ol] + CCCCCCCCCCCCCCCC(=O)O, the activity coefficient by setting is: (340.19 K) 1.47 ± 0.12; (348.01 K) 1.41 ± 0.12; (358.32 K) 1.29 ± 0.11.
`CCC(C)O` (centres undefined) [butan-2-ol] + CCCCCCCCCCCC(=O)O: the activity coefficient came out at 1.28 ± 0.11 (314.1 K); 1.3 ± 0.11 (314.24 K); 1.17 ± 0.097 (333.38 K); 1.06 ± 0.088 (353.25 K); 1.08 ± 0.089 (353.3 K).
For the compound `CC(C)O` [propan-2-ol] + CCCCCCCCCC(=O)O, the activity coefficient is, setting by setting: (314.1 K) 1.56 ± 0.13; (314.24 K) 1.58 ± 0.13; (333.26 K) 1.35 ± 0.11; (333.38 K) 1.36 ± 0.11; (353.25 K) 1.2 ± 0.1; (353.3 K) 1.15 ± 0.097.
As for `CCOC(C)=O` [ethyl acetate] + CCCCCCCCCCCCCC(=O)O, the activity coefficient (314.1 K) stood at 1.24 ± 0.1; the activity coefficient (314.24 K) was 1.21 ± 0.1; the activity coefficient (333.26 K) came to 1.19 ± 0.099; the activity coefficient (333.38 K) came out at 1.19 ± 0.099; the activity coefficient (353.25 K) is 1.13 ± 0.094; the activity coefficient (353.3 K) turned out to be 1.12 ± 0.093.
Take `CCCCCCC` [heptane] + CCCCCCCCCC(=O)O: the activity coefficient reads like this: (314.1 K) 1.87 ± 0.16; (314.24 K) 1.9 ± 0.16; (333.26 K) 1.83 ± 0.16; (333.38 K) 1.82 ± 0.16; (353.3 K) 1.75 ± 0.15.
On to `CCCCCCC` [heptane] + CCCCCCCCCCCC(=O)O, for which the activity coefficient by setting is: (314.1 K) 1.65 ± 0.14; (314.24 K) 1.67 ± 0.14; (333.26 K) 1.67 ± 0.14; (333.38 K) 1.66 ± 0.14; (353.25 K) 1.59 ± 0.14; (353.3 K) 1.62 ± 0.14.
For the compound `CCCCCC` [hexane] + CCCCCCCCCC(=O)O, the activity coefficient is 1.75 ± 0.15 (314.1 K); 1.77 ± 0.15 (314.24 K); 1.73 ± 0.15 (333.26 K); 1.7 ± 0.14 (333.38 K); 1.65 ± 0.14 (353.3 K).
For the compound `ClC(Cl)Cl` [trichloromethane] + CCCCCCCCCCCCCCCC(=O)O, the activity coefficient (340.19 K) turned out to be 0.748 ± 0.063, the activity coefficient (348.01 K) came out at 0.739 ± 0.063 and the activity coefficient (358.22 K) is 0.759 ± 0.064.
For the compound `CCCCCC` [hexane] + CCCCCCCCCCCCCC(=O)O, the activity coefficient reads like this: (338.27 K) 1.34 ± 0.11; (348.3 K) 1.33 ± 0.11; (358.33 K) 1.33 ± 0.11.
With `CC(C)CC(C)(C)C` [2,2,4-trimethylpentane] + CCCCCCCCCCCC(=O)O, the activity coefficient is, setting by setting: (314.1 K) 1.75 ± 0.15; (314.24 K) 1.77 ± 0.15; (333.26 K) 1.7 ± 0.14; (333.38 K) 1.72 ± 0.15; (353.25 K) 1.67 ± 0.14; (353.3 K) 1.69 ± 0.14.
Take `CC(C)CC(C)(C)C` [2,2,4-trimethylpentane] + CCCCCCCCCCCCCC(=O)O: the activity coefficient is, setting by setting: (338.27 K) 1.53 ± 0.13; (348.3 K) 1.5 ± 0.13; (358.33 K) 1.45 ± 0.12.
In the case of `CCCCO` [butan-1-ol] + CCCCCCCCCCCCCC(=O)O, the activity coefficient reads like this: (314.1 K) 1.49 ± 0.13; (314.24 K) 1.54 ± 0.13; (333.26 K) 1.45 ± 0.12; (333.38 K) 1.42 ± 0.12; (353.25 K) 1.22 ± 0.11; (353.3 K) 1.32 ± 0.12.
With `ClC=C(Cl)Cl` [trichloroethene] + CCCCCCCCCCCCCCCC(=O)O, the activity coefficient is, setting by setting: (340.19 K) 0.831 ± 0.069; (348.01 K) 0.826 ± 0.069; (358.22 K) 0.831 ± 0.069.
With `CC(C)O` [propan-2-ol] + CCCCCCCCCCCCCC(=O)O, the activity coefficient is, setting by setting: (314.1 K) 1.39 ± 0.12; (314.24 K) 1.42 ± 0.12; (333.26 K) 1.3 ± 0.11; (333.38 K) 1.3 ± 0.11; (353.25 K) 1.19 ± 0.099; (353.3 K) 1.19 ± 0.099.
As to `CO` [methanol] + CCCCCCCCCCCC(=O)O, the activity coefficient reads like this: (314.1 K) 1.81 ± 0.15; (328.82 K) 1.9 ± 0.16; (333.26 K) 1.67 ± 0.14; (343.65 K) 1.66 ± 0.14; (353.3 K) 1.58 ± 0.13.
As to `CCCCCCC` [heptane] + CCCCCCCCCCCCCC(=O)O, the activity coefficient (314.1 K) was determined as 1.45 ± 0.12; the activity coefficient (314.24 K) worked out at 1.47 ± 0.12; the activity coefficient (333.38 K) stood at 1.43 ± 0.12; the activity coefficient (353.25 K) was 1.4 ± 0.12; the activity coefficient (353.3 K) worked out at 1.4 ± 0.12.
Turning to `CCCO` [propan-1-ol] + CCCCCCCCCCCCCCCC(=O)O, the activity coefficient by setting is: (340.19 K) 1.74 ± 0.15; (348.01 K) 1.63 ± 0.14; (358.32 K) 1.5 ± 0.13.
`Cc1ccccc1` [toluene] + CCCCCCCCCCCC(=O)O: the activity coefficient amounted to 1.06 ± 0.088 (314.1 K); 1.08 ± 0.089 (314.24 K); 1.07 ± 0.088 (333.26 K); 1.04 ± 0.086 (333.38 K); 1.05 ± 0.087 (353.3 K).
Consider `CCC(C)O` (centres undefined) [butan-2-ol] + CCCCCCCCCCCCCCCC(=O)O, for which the activity coefficient reads like this: (340.19 K) 1.26 ± 0.1; (348.01 K) 1.2 ± 0.1; (358.32 K) 1.12 ± 0.092.
On to `COc1ccccc1` [anisole] + CCCCCCCCCCCC(=O)O, for which the activity coefficient is, setting by setting: (333.26 K) 1.37 ± 0.12; (343.65 K) 1.35 ± 0.11; (353.25 K) 1.33 ± 0.11; (353.3 K) 1.35 ± 0.11.
As for `ClCc1ccccc1` [(chloromethyl)benzene] + CCCCCCCCCCCCCCCC(=O)O, the activity coefficient reads like this: (348.01 K) 1.62 ± 0.14; (358.22 K) 1.57 ± 0.13.
Regarding `C1CCCCC1` [cyclohexane] + CCCCCCCCCCCC(=O)O, the activity coefficient (314.1 K) was 1.29 ± 0.11; the activity coefficient (314.24 K) was determined as 1.28 ± 0.11; the activity coefficient (333.38 K) came to 1.25 ± 0.1; the activity coefficient (353.25 K) is 1.2 ± 0.1; the activity coefficient (353.3 K) came to 1.2 ± 0.1.
Regarding `Cc1ccccc1` [toluene] + CCCCCCCCCC(=O)O, the activity coefficient reads like this: (314.1 K) 1.15 ± 0.095; (314.24 K) 1.17 ± 0.097; (333.26 K) 1.12 ± 0.093; (333.38 K) 1.12 ± 0.092; (353.25 K) 1.14 ± 0.095; (353.3 K) 1.16 ± 0.096.
With `CCCO` [propan-1-ol] + CCCCCCCCCCCCCC(=O)O, the activity coefficient (314.1 K) came to 1.61 ± 0.14; the activity coefficient (314.24 K) is 1.65 ± 0.14; the activity coefficient (333.26 K) is 1.52 ± 0.13; the activity coefficient (333.38 K) is 1.51 ± 0.13; the activity coefficient (353.25 K) stood at 1.37 ± 0.12; the activity coefficient (353.3 K) was 1.37 ± 0.12.
Take `CCc1ccccc1` [ethylbenzene] + CCCCCCCCCCCCCC(=O)O: the activity coefficient reads like this: (338.27 K) 1.06 ± 0.087; (348.3 K) 1.06 ± 0.087; (358.33 K) 1.04 ± 0.085.
For the compound `C1CCCCC1` [cyclohexane] + CCCCCCCCCCCCCC(=O)O, the activity coefficient came out at 1.09 ± 0.09 (314.1 K); 1.09 ± 0.09 (314.24 K); 1.07 ± 0.088 (333.38 K); 1.05 ± 0.087 (353.25 K); 1.02 ± 0.085 (353.3 K).
As to `CCCCO` [butan-1-ol] + CCCCCCCCCCCC(=O)O, the activity coefficient (314.24 K) is 1.7 ± 0.14; the activity coefficient (333.26 K) is 1.54 ± 0.13; the activity coefficient (333.38 K) was 1.51 ± 0.13; the activity coefficient (353.25 K) turned out to be 1.34 ± 0.11; the activity coefficient (353.3 K) is 1.36 ± 0.11.
Turning to `CC(C)CC(C)(C)C` [2,2,4-trimethylpentane] + CCCCCCCCCCCCCCCC(=O)O, the activity coefficient stood at 1.5 ± 0.13 (340.19 K), 1.46 ± 0.12 (348.01 K) and 1.42 ± 0.12 (358.32 K).
Turning to `CO` [methanol] + CCCCCCCCCC(=O)O, the activity coefficient reads like this: (314.24 K) 2.14 ± 0.18; (333.38 K) 1.84 ± 0.16; (353.08 K) 1.46 ± 0.12; (353.3 K) 1.57 ± 0.13.
Turning to `CO` [methanol] + CCCCCCCCCCCCCCCC(=O)O, the activity coefficient (340.17 K) is 2.09 ± 0.18, the activity coefficient (347.93 K) came to 1.94 ± 0.17 and the activity coefficient (358.23 K) stood at 1.8 ± 0.15.
On to `CCCO` [propan-1-ol] + CCCCCCCCCC(=O)O, for which the activity coefficient (314.1 K) was 1.89 ± 0.16; the activity coefficient (314.24 K) came to 1.92 ± 0.17; the activity coefficient (333.26 K) was found to be 1.57 ± 0.13; the activity coefficient (333.38 K) turned out to be 1.6 ± 0.14; the activity coefficient (353.25 K) was found to be 1.41 ± 0.12; the activity coefficient (353.3 K) was 1.35 ± 0.12.

Source of the values: the NIST ThermoML archive (doi:10.1016/j.jct.2012.06.009).
